Test results: EP1077981B1, “NOVEL CEPHALOSPORIN COMPOUNDS, PROCESSES FOR PREPARATION THEREOF AND ANTIMICROBIAL COMPOSITIONS CONTAINING THE SAME” (LG CHEMICAL LIMITED, priority 1998, dated 1999)
Values after ≈ are worked out from the molar mass of the structure shown. Where two headings read alike, the source gives them in different places.

Columns and labels:
Experiment in all cases: MIC against standard strains (agar dilution)
Type in all cases: cell-based
S. aureus = conditions: Staphylococcus aureus, Mueller-Hinton agar, 10^7 cfu/mℓ, 20 hours at 37°C
Protocol: (§1) Test example 1: Measurement of Minimum Inhibitory Concentration (MIC)
(§2) Specifically, test compounds were diluted by 2-fold dilution method and dispersed in Mueller-Hinton agar medium and then, 2µℓ of test strains were inoculated at a concentration of 10^7 cfu(colony forming unit)/mℓ on the medium and incubated for 20 hours at 37°C.

[1] = tested on: Serratia marcescens 1826E; conditions: Serratia marcescens 1826E; Mueller-Hinton agar, 20 hours at 37°C; read-out: MIC
Protocol: as §1, §2

[2] = tested on: Pseudomonas aeruginosa 6065Y; conditions: Pseudomonas aeruginosa 6065Y; Mueller-Hinton agar, 20 hours at 37°C; read-out: MIC
Protocol: as §1, §2

[3] = tested on: Citrobacter diversus 2046E; conditions: Citrobacter koseri; Citrobacter diversus 2046E; Mueller-Hinton agar, 20 hours at 37°C; read-out: MIC
Protocol: as §1, §2

Escherichia coli 3190Y = tested on: Escherichia coli 3190Y
Protocol: as §1, §2

[4] = tested on: Staphylococcus aureus 241; conditions: Staphylococcus aureus 241; Mueller-Hinton agar, 20 hours at 37°C; read-out: MIC
Protocol: as §1, §2

[5] = tested on: Moraxella catarrhalis 25240; conditions: Moraxella catarrhalis 25240; Mueller-Hinton agar, 20 hours at 37°C; read-out: MIC
Protocol: as §1, §2

[6] = tested on: Staphylococcus aureus 6538p; conditions: Staphylococcus aureus 6538p; Mueller-Hinton agar, 20 hours at 37°C; read-out: MIC
Protocol: as §1, §2

Proteus vulgaris 6059 = conditions: Proteus vulgaris 6059; Mueller-Hinton agar, 20 hours at 37°C; read-out: MIC
Protocol: as §1, §2

[7] = tested on: Moraxella catarrhalis C2431; conditions: Moraxella catarrhalis C2431; Mueller-Hinton agar, 20 hours at 37°C; read-out: MIC
Protocol: as §1, §2

[8] = tested on: Klebsiella pneumoniae 2011E; conditions: Klebsiella pneumoniae 2011E; Mueller-Hinton agar, 20 hours at 37°C; read-out: MIC
Protocol: as §1, §2

[9] = tested on: Escherichia coli TEM1 1193E; conditions: TEM11193E, 20 h
Protocol: as §1, §2

[10] = tested on: Enterococcus faecalis 29212; conditions: Enterococcus faecalis 29212; Mueller-Hinton agar, 20 hours at 37°C; read-out: MIC
Protocol: as §1, §2

Escherichia coli 851E = tested on: Escherichia coli 851E
Protocol: as §1, §2

Escherichia coli 10536 = conditions: Escherichia coli 10536; Mueller-Hinton agar, 20 hours at 37°C; read-out: MIC
Protocol: as §1, §2

[11] = tested on: Escherichia coli TEM9 2639E; conditions: TEM92639E; Escherichia coli TEM9 2639E; Mueller-Hinton agar, 20 hours at 37°C; read-out: MIC
Protocol: as §1, §2

[12] = tested on: Enterobacter cloacae IND+VE 1194E; conditions: Enterobacter cloacae IND+VE 1194E; Mueller-Hinton agar, 20 hours at 37°C; read-out: MIC
Protocol: as §1, §2

H. influenzae = conditions: Haemophilus influenzae; H. influenzae; Mueller-Hinton agar, 10^7 cfu/mℓ, 20 hours at 37°C; read-out: MIC
Protocol: as §1, §2

Staphylococcus aureus 77 = conditions: Staphylococcus aureus 77; Mueller-Hinton agar, 20 hours at 37°C; read-out: MIC
Protocol: as §1, §2

[13] = tested on: Klebsiella aerogenes K1+ 1082E; conditions: Klebsiella aerogenes K1+ 1082E; Mueller-Hinton agar, 20 hours at 37°C; read-out: MIC
Protocol: as §1, §2

[14] = tested on: Pseudomonas aeruginosa 1912E; conditions: Pseudomonas aeruginosa 1912E; Mueller-Hinton agar, 20 hours at 37°C; read-out: MIC
Protocol: as §1, §2

[15] = tested on: Staphylococcus aureus giorgio; conditions: Staphylococcus aureus giorgio; Mueller-Hinton agar, 20 hours at 37°C; read-out: MIC
Protocol: as §1, §2

Enterobacter cloacae P99 = conditions: Enterobacter cloacae P99; Mueller-Hinton agar, 20 hours at 37°C; read-out: MIC
Protocol: as §1, §2

[16] = tested on: Salmonella typhimurium 14028; conditions: Salmonella enterica; Salmonella typhimurium 14028; Mueller-Hinton agar, 20 hours at 37°C; read-out: MIC
Protocol: as §1, §2

[17] = tested on: Klebsiella aerogenes SHV-1 1976E
Protocol: as §1, §2

[18] = tested on: Escherichia coli TEM3 3455E; conditions: TEM33455E, 20 h
Protocol: as §1, §2

E. coli = conditions: Escherichia coli, Mueller-Hinton agar, 10^7 cfu/mℓ, 20 hours at 37°C
Protocol: as §1, §2

S. pneumoniae = conditions: Streptococcus pneumoniae, Mueller-Hinton agar, 10^7 cfu/mℓ, 20 hours at 37°C
Protocol: as §1, §2

[19] = tested on: Citrobacter freundii 8090; conditions: Citrobacter freundii 8090; Mueller-Hinton agar, 20 hours at 37°C; read-out: MIC
Protocol: as §1, §2

[20] = tested on: Staphylococcus epidermidi 887E; conditions: Staphylococcus epidermidi 887E; Mueller-Hinton agar, 20 hours at 37°C; read-out: MIC
Protocol: as §1, §2

[21] = tested on: Morganella morganii 1375E; conditions: Morganella morganii 1375E; Mueller-Hinton agar, 20 hours at 37°C; read-out: MIC
Protocol: as §1, §2

[22] = tested on: Acinetobacter calcoaceticu 15473; conditions: Acinetobacter calcoaceticu 15473; Mueller-Hinton agar, 20 hours at 37°C; read-out: MIC
Protocol: as §1, §2

P. vulgaris = conditions: Proteus vulgaris, Mueller-Hinton agar, 10^7 cfu/mℓ, 20 hours at 37°C
Protocol: as §1, §2

## CC(C)(O/N=C(\C(=O)N[C@@H]1C(=O)N2C(C(=O)[O-])=C(C[n+]3ccccc3)CS[C@H]12)c1csc(N)n1)C(=O)O [Ceftazidime, reference compound]
S. aureus
  MIC: 4 µg/mL (≈ 7.32 µM)
[1]
  MIC: 0.25 µg/mL (≈ 0.457 µM)
[2]
  MIC: 32 µg/mL (≈ 58.5 µM)
[3]
  MIC: 0.25 µg/mL (≈ 0.457 µM)
Escherichia coli 3190Y; Escherichia coli 3190Y, Mueller-Hinton agar, 20 hours at 37°C, read-out: MIC
  MIC: 0.031 µg/mL (≈ 0.0567 µM)
[4]
  MIC: > 128 µg/mL
[5]
  MIC: 0.016 µg/mL (≈ 0.0293 µM)
[6]
  MIC: 16 µg/mL (≈ 29.3 µM)
Proteus vulgaris 6059
  MIC: 0.031 µg/mL (≈ 0.0567 µM)
[7]
  MIC: 0.031 µg/mL (≈ 0.0567 µM)
[8]
  MIC: 0.5 µg/mL (≈ 0.915 µM)
[9]
  MIC: 0.13 µg/mL (≈ 0.238 µM)
[10]
  MIC: > 128 µg/mL
Escherichia coli 851E; Escherichia coli 851E, Mueller-Hinton agar, 20 hours at 37°C, read-out: MIC
  MIC: 0.063 µg/mL (≈ 0.115 µM)
Escherichia coli 10536
  MIC: 0.063 µg/mL (≈ 0.115 µM)
[11]
  MIC: > 128 µg/mL
[12]
  MIC: 0.5 µg/mL (≈ 0.915 µM)
H. influenzae
  MIC: 0.063 µg/mL (≈ 0.115 µM)
Staphylococcus aureus 77
  MIC: 32 µg/mL (≈ 58.5 µM)
[13]
  MIC: 0.25 µg/mL (≈ 0.457 µM)
[14]
  MIC: 1 µg/mL (≈ 1.83 µM)
[15]
  MIC: 4 µg/mL (≈ 7.32 µM)
Enterobacter cloacae P99
  MIC: 32 µg/mL (≈ 58.5 µM)
[16]
  MIC: 0.25 µg/mL (≈ 0.457 µM)
[17]; SHV11976E, Klebsiella aerogenes SHV-1 1976E, Mueller-Hinton agar, 20 hours at 37°C, read-out: MIC
  MIC: 0.25 µg/mL (≈ 0.457 µM)
[18]
  MIC: 8 µg/mL (≈ 14.6 µM)
E. coli
  MIC: 0.031 µg/mL (≈ 0.0567 µM)
S. pneumoniae
  MIC: 8 µg/mL (≈ 14.6 µM)
[19]
  MIC: 0.13 µg/mL (≈ 0.238 µM)
[20]
  MIC: > 128 µg/mL
[21]
  MIC: 0.063 µg/mL (≈ 0.115 µM)
[22]
  MIC: 2 µg/mL (≈ 3.66 µM)
P. vulgaris
  MIC: 0.031 µg/mL (≈ 0.0567 µM)

## Nc1cc(SC2=C(C(=O)O)N3C(=O)C(NC(=O)/C(=N\O)c4csc(N)n4)C3SC2)nc(N)n1 (stereo not shown) [compound 26, 7-[(Z)-2-(2-amino-thiazol-4-yl)-2-hydroxyimino-acetylamino]-3-(2,6-diamino-pyrimidin-4-ylsulfanyl)-8-oxo-5-thia-1-azabicyclo[4,2,0]oct-2-ene-2-carboxylic acid]
[1]
  MIC: 64 µg/mL (≈ 126 µM)
[2]
  MIC: > 64 µg/mL
[3]
  MIC: > 64 µg/mL
Escherichia coli 3190Y; Escherichia coli, 3190Y, 20 h
  MIC: 0.031 µg/mL (≈ 0.0608 µM)
[4]
  MIC: 8 µg/mL (≈ 15.7 µM)
[5]
  MIC: ≤ 0.008 µg/mL
[6]
  MIC: 0.5 µg/mL (≈ 0.981 µM)
Proteus vulgaris 6059
  MIC: 0.031 µg/mL (≈ 0.0608 µM)
[7]
  MIC: 0.016 µg/mL (≈ 0.0314 µM)
[8]
  MIC: 1 µg/mL (≈ 1.96 µM)
[9]
  MIC: 0.5 µg/mL (≈ 0.981 µM)
[10]
  MIC: 16 µg/mL (≈ 31.4 µM)
Escherichia coli 851E; Escherichia coli, 851E, 20 h
  MIC: 0.063 µg/mL (≈ 0.124 µM)
Escherichia coli 10536
  MIC: 0.063 µg/mL (≈ 0.124 µM)
[11]
  MIC: 32 µg/mL (≈ 62.8 µM)
[12]
  MIC: > 64 µg/mL
Staphylococcus aureus 77
  MIC: 2 µg/mL (≈ 3.92 µM)
[13]
  MIC: > 64 µg/mL
[14]
  MIC: > 64 µg/mL
[15]
  MIC: 0.25 µg/mL (≈ 0.491 µM)
Enterobacter cloacae P99
  MIC: > 64 µg/mL
[16]
  MIC: 0.13 µg/mL (≈ 0.255 µM)
[17]; Klebsiella aerogenes, 20 h
  MIC: 0.5 µg/mL (≈ 0.981 µM)
[18]
  MIC: 64 µg/mL (≈ 126 µM)
[19]
  MIC: 8 µg/mL (≈ 15.7 µM)
[20]
  MIC: 2 µg/mL (≈ 3.92 µM)
[21]
  MIC: 0.25 µg/mL (≈ 0.491 µM)
[22]
  MIC: 32 µg/mL (≈ 62.8 µM)
